pEC50, pIC50: −log10 of the molar value.
Legend:
influenza virus = assay: microbe, parasite or virus in culture; format: cell-based, influenza virus (MDBK or MDCK cells); conditions: unidentified influenza virus, 72 h, read-out: CPE EC50, effective concentration to achieve 50% CPE inhibition, 3 days incubation, WST-8
[1] = biological target: cap-dependent endonuclease (RNP fraction containing PB1•PB2•PA complex) (Influenza A virus, UniProt P15659); assay: biochemical; conditions: RNP from A/WSN/33 virus, capped Cy3/BHQ2 30mer RNA substrate, 60 minutes at room temperature; read-out: CEN IC50

Row | SMILES | pEC50 (influenza virus) | pIC50 [1]
1 | C[C@H](N1CN(C2c3ccccc3CSc3ccccc32)n2ccc(=O)c(O)c2C1=O)C(C)(C)C (some centres unmarked) [Example 314] | 7.59 | 6.83
2 | Cc1noc(CN2CN(C3c4ccccc4CSc4ccccc43)n3ccc(=O)c(O)c3C2=O)n1 (centres unmarked) [Example 315] | 6.94 | 7.24
3 | O=C1c2c(O)c(=O)ccn2N(C2c3ccccc3CSc3ccccc32)CN1Cc1nccs1 (centres unmarked) [Example 316] | 7.08 | 7.16
4 | COC[C@H](C)N1CN(C2c3ccccc3CSc3ccccc32)n2ccc(=O)c(O)c2C1=O (some centres unmarked) [Example 317] | 7.77 | 7.32
5 | C[C@@H](N1CN(C2c3ccccc3CSc3ccccc32)n2ccc(=O)c(O)c2C1=O)C(C)(C)C (some centres unmarked) [Example 320] | 7.96 | 7.35
6 | O=C1c2c(O)c(=O)ccn2N(C2c3ccccc3CSc3ccccc32)CN1C(CF)CF (centres unmarked) [Example 322] | 7.55 | 6.95
7 | O=C1c2c(O)c(=O)ccn2N(C2c3ccccc3CSc3ccccc32)CN1[C@@H]1C[C@@H]1F (some centres unmarked) [Example 323] | 7.72 | 7.11
8 | O=C1c2c(O)c(=O)ccn2N(C2c3ccccc3CSc3ccccc32)CN1C1CC(F)(F)C1 (centres unmarked) [Example 324] | 7.46 | 6.97
9 | CC(C)N1CN(C2c3ccccc3CSc3cc(Cl)ccc32)n2ccc(=O)c(O)c2C1=O (centres unmarked) [Example 327] | 7.62 | 7.04
10 | CC(C)N1CN(C2c3ccccc3CSc3ccc(F)cc32)n2ccc(=O)c(O)c2C1=O (centres unmarked) [Example 329] | 7.64 | 7.24
11 | CCN1CN(C2c3ccccc3CSc3c(Cl)cccc32)n2ccc(=O)c(O)c2C1=O (centres unmarked) [Example 330] | 7.72 | 7.59
12 | CN1CN(C2c3ccccc3CSc3ccc(Cl)cc32)n2ccc(=O)c(O)c2C1=O (centres unmarked) [Example 331] | 6.47 | 7.35
13 | COCCN1CN(C2c3ccccc3CSc3ccc(Cl)cc32)n2ccc(=O)c(O)c2C1=O (centres unmarked) [Example 333] | 6.37 | 7.68
14 | COCCN1CN(C2c3ccccc3CSc3cc(Cl)ccc32)n2ccc(=O)c(O)c2C1=O (centres unmarked) [Example 334] | 7.49 | 7.12
15 | COCCN1CN(C2c3ccccc3CSc3c(Cl)cccc32)n2ccc(=O)c(O)c2C1=O (centres unmarked) [Example 335] | 7.80 | 7.72
16 | COCCN1CN(C2c3ccccc3CSc3cc(F)ccc32)n2ccc(=O)c(O)c2C1=O (centres unmarked) [Example 337] | 7.55 | 7.24
17 | COCCN1CN(C2c3ccccc3CSc3ccc(F)cc32)n2ccc(=O)c(O)c2C1=O (centres unmarked) [Example 338] | 7.07 | 7.13
18 | O=C1c2c(O)c(=O)ccn2N(C2c3ccccc3CSc3c(Cl)cccc32)CN1C1CC1 (centres unmarked) [Example 341] | 7.57 | 7.80
19 | CC(N1CN(C2c3ccccc3CSc3c(Cl)cccc32)n2ccc(=O)c(O)c2C1=O)C(F)(F)F (centres unmarked) [Example 343] | 7.74 | 6.91
20 | CC(C)N1CN(C2c3cc(F)ccc3CSc3ccc(F)cc32)n2ccc(=O)c(O)c2C1=O (centres unmarked) [Example 346] | 7.74 | 7.55
21 | CN1CN(C2c3ccccc3CSc3c(Cl)cccc32)n2ccc(=O)c(O)c2C1=O (centres unmarked) [Example 347] | 7.77 | 7.85
22 | CN1CN(C2c3ccccc3CSc3ccc(F)cc32)n2ccc(=O)c(O)c2C1=O (centres unmarked) [Example 349] | 7.12 | 7.28
23 | CN1CN(C2c3ccccc3CSc3cc(F)ccc32)n2ccc(=O)c(O)c2C1=O (centres unmarked) [Example 355] | 7.12 | 7.40
24 | Cc1ccc2c(c1)C(N1CN(C(C)C)C(=O)c3c(O)c(=O)ccn31)c1ccccc1CS2 (centres unmarked) [Example 357] | 6.41 | 6.86
25 | Cc1ccc(C)c2c1SCc1ccccc1C2N1CN(C(C)C)C(=O)c2c(O)c(=O)ccn21 (centres unmarked) [Example 358] | 7.16 | 7.29
26 | O=C1c2c(O)c(=O)ccn2N(C2c3ccccc3CSc3ccccc32)CN1CCO (centres unmarked) [Example 360] | 7.06 | 7.38
27 | O=C1c2c(O)c(=O)ccn2N(C2c3ccccc3CCc3ccccc32)CN1CCO [Example 361] | 6.84 | 7.41
28 | CC(CO)N1CN(C2c3ccccc3CSc3ccccc32)n2ccc(=O)c(O)c2C1=O (centres unmarked) [Example 363] | 7.17 | 7.24

Row | SMILES | pEC50 (influenza virus) | pIC50 [1]
29 | O=C1c2c(O)c(=O)ccn2N(C2c3ccccc3CSc3ccccc32)CN1CC(O)CO (centres unmarked) [Example 365] | 5.65 | 7.39
30 | O=C1c2c(O)c(=O)ccn2N(C2c3ccccc3CSc3ccccc32)CN1C(CO)CO (centres unmarked) [Example 366] | 6.08 | 7.05
31 | CC(CO)N1CN(C(c2ccccc2)c2ccccc2)n2ccc(=O)c(O)c2C1=O (centres unmarked) [Example 368] | 6.33 | 6.85
32 | CC(CCO)N1CN(C(c2ccccc2)c2ccccc2)n2ccc(=O)c(O)c2C1=O (centres unmarked) [Example 369] | 6.36 | 6.53
33 | CC(C)(O)CN1CN(C2c3ccccc3CCc3ccccc32)n2ccc(=O)c(O)c2C1=O [Example 370] | 7.21 | 6.95
34 | CC(C)(O)CN1CN(C2c3ccccc3CSc3ccccc32)n2ccc(=O)c(O)c2C1=O (centres unmarked) [Example 371] | 7.13 | 6.79
35 | O=C1c2c(O)c(=O)ccn2N(C2c3ccccc3CSc3ccccc32)CN1CC1(O)CCCCC1 (centres unmarked) [Example 372] | 6.84 | 6.79
36 | O=C1c2c(O)c(=O)ccn2N(C2c3ccccc3CSc3ccccc32)CN1[C@H](CO)c1ccccc1 (some centres unmarked) [Example 376] | 7.04 | 7.20
37 | CC(C)[C@@H](CO)N1CN(C2c3ccccc3CSc3ccccc32)n2ccc(=O)c(O)c2C1=O (some centres unmarked) [Example 378] | 7.66 | 7.33
38 | CC(C)N1CN(C2c3ccccc3CCc3c(CO)cccc32)n2ccc(=O)c(O)c2C1=O (centres unmarked) [Example 384] | 6.53 | 6.82
39 | CC(C)N1CN([C@@H]2c3ccccc3[C@@H]3[C@H](c4ccccc42)C3(F)F)n2ccc(=O)c(O)c2C1=O [Example 386] | 7.02 | 7.12
40 | CC(C)N1CN(C2c3ccccc3NC(=O)c3ccccc32)n2ccc(=O)c(O)c2C1=O (centres unmarked) [Example 387] | 5.94 | 6.52
41 | CC(C)N1CN(C2c3ccccc3CCc3ccsc32)n2ccc(=O)c(O)c2C1=O (centres unmarked) [Example 388] | 7.20 | 6.88
42 | CC(C)N1CN(C2c3ccccc3COc3c(Cl)cccc32)n2ccc(=O)c(O)c2C1=O (centres unmarked) [Example 390] | 7.54 | 7.02
43 | O=C1c2c(O)c(=O)ccn2N(C2c3ccccc3COc3ccccc32)CN1C1CC1 (centres unmarked) [Example 392] | 7.60 | 6.82
44 | COCCN1CN(C2c3ccccc3COc3ccccc32)n2ccc(=O)c(O)c2C1=O (centres unmarked) [Example 394] | 7.19 | 7.06
45 | CN1CN(C2c3ccccc3COc3ccccc32)n2ccc(=O)c(O)c2C1=O (centres unmarked) [Example 395] | 7.05 | 7.37
46 | CC(C)N1CN(C2c3ccccc3COc3ccc(Cl)cc32)n2ccc(=O)c(O)c2C1=O (centres unmarked) [Example 398] | 6.93 | 7.47
47 | CC(C)N1CN(C2c3ccccc3COc3cc(F)ccc32)n2ccc(=O)c(O)c2C1=O (centres unmarked) [Example 399] | 7.21 | 6.98
48 | COCCN1CN(C2c3ccccc3COc3c(F)cccc32)n2ccc(=O)c(O)c2C1=O (centres unmarked) [Example 400] | 7.10 | 7.17
49 | COCCN1CN(C2c3cc(F)ccc3COc3ccccc32)n2ccc(=O)c(O)c2C1=O (centres unmarked) [Example 404] | 7.20 | 7.08
50 | COCCN1CN(C2c3ccccc3OCc3c(F)cccc32)n2ccc(=O)c(O)c2C1=O (centres unmarked) [Example 405] | 7.29 | 7.13
51 | CC(C)N1CN(C2c3ccccc3OCc3c(F)cccc32)n2ccc(=O)c(O)c2C1=O (centres unmarked) [Example 407] | 7.77 | 7.46
52 | CC(C)N1CN(C2c3cc(Cl)ccc3COc3ccccc32)n2ccc(=O)c(O)c2C1=O (centres unmarked) [Example 408] | 7.21 | 6.87
53 | C[C@@H](N1CN(C2c3ccccc3COc3c(Cl)cccc32)n2ccc(=O)c(O)c2C1=O)C(F)(F)F (some centres unmarked) [Example 411] | 7.85 | 7.34
54 | CC(C)c1cccc2c1OCc1ccccc1C2N1CN(C(C)C)C(=O)c2c(O)c(=O)ccn21 (centres unmarked) [Example 412] | 6.69 | 6.53
55 | C[C@H](N1CN([C@@H]2c3ccccc3SCc3c(Cl)cccc32)n2ccc(=O)c(O)c2C1=O)C(F)(F)F [Example 419] | 7.72 | 6.91

Source: patent US9815835B2, “Substituted polycyclic carbamolypyridone derivative” (priority 2009, dated 2017)
